Assay results as given in US11981658B2, “Substituted aminopyridine compounds as EGFR inhibitors” (YUHAN CORPORATION, priority 2021, dated 2024).
Where two headings read alike, the source gives them in different places.

Tests used:
EGFR Del19/T790M/C797S = EGFR Del19/T790M/C797S (Homo sapiens, UniProt P00533, C797S/DEL746-750/T790M); assay: Biochemical EGFR kinase inhibition assay (Lance Ultra TR-FRET), triple mutant del19/T790M/C797S
Procedure, shortened: (§1)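 In this biochemical assay, phosphorylation after a one-hour room-temperature reaction was detected with europium-labelled anti-phosphopeptide antibody at 2 nM final concentration.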

EGFR L858R/T790M/C797S = EGFR L858R/T790M/C797S (Homo sapiens, UniProt P00533, C797S/L858R/T790M); assay: Biochemical EGFR kinase inhibition assay (Lance Ultra TR-FRET), triple mutant L858R/T790M/C797S
EGFR L858R/T790M/C797S, sequence (P00533 25-1210 T790M/C797S/L858R): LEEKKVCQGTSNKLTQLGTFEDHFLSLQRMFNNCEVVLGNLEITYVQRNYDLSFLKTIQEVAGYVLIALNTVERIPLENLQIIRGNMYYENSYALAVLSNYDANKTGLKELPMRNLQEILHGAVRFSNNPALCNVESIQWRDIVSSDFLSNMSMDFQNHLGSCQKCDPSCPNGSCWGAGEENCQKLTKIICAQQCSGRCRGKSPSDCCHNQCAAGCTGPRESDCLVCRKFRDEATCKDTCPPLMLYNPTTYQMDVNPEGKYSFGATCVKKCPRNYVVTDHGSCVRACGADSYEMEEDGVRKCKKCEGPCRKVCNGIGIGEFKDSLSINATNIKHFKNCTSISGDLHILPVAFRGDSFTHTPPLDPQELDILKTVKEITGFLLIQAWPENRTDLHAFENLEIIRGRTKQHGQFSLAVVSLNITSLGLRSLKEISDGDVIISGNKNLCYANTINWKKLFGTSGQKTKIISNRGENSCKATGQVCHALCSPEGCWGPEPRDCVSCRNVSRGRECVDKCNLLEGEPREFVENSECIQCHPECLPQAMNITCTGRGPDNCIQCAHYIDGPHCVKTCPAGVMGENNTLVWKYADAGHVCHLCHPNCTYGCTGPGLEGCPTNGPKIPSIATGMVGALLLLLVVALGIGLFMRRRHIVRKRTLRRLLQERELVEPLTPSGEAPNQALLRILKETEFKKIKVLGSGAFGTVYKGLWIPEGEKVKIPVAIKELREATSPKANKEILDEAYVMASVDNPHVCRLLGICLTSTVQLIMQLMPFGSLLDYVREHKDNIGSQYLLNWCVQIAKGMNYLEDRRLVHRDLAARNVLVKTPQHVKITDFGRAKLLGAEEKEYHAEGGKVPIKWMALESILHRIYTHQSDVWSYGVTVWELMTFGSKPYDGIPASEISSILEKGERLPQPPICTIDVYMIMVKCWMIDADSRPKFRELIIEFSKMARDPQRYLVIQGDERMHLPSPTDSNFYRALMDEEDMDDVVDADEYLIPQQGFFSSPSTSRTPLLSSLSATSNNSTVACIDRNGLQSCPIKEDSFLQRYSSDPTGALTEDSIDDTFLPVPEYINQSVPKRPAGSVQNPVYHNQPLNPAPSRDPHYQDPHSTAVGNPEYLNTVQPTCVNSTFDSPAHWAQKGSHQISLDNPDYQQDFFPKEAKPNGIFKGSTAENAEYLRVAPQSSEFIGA
Procedure, shortened: as §1

EGFR Del19/C797S = EGFR Del19/C797S (Homo sapiens, UniProt P00533, C797S/DEL746-750); assay: Biochemical EGFR kinase inhibition assay (Lance Ultra TR-FRET), double mutant del19/C797S
EGFR Del19/C797S, sequence (P00533 with tags, fused parts or gaps DEL746-750/C797S): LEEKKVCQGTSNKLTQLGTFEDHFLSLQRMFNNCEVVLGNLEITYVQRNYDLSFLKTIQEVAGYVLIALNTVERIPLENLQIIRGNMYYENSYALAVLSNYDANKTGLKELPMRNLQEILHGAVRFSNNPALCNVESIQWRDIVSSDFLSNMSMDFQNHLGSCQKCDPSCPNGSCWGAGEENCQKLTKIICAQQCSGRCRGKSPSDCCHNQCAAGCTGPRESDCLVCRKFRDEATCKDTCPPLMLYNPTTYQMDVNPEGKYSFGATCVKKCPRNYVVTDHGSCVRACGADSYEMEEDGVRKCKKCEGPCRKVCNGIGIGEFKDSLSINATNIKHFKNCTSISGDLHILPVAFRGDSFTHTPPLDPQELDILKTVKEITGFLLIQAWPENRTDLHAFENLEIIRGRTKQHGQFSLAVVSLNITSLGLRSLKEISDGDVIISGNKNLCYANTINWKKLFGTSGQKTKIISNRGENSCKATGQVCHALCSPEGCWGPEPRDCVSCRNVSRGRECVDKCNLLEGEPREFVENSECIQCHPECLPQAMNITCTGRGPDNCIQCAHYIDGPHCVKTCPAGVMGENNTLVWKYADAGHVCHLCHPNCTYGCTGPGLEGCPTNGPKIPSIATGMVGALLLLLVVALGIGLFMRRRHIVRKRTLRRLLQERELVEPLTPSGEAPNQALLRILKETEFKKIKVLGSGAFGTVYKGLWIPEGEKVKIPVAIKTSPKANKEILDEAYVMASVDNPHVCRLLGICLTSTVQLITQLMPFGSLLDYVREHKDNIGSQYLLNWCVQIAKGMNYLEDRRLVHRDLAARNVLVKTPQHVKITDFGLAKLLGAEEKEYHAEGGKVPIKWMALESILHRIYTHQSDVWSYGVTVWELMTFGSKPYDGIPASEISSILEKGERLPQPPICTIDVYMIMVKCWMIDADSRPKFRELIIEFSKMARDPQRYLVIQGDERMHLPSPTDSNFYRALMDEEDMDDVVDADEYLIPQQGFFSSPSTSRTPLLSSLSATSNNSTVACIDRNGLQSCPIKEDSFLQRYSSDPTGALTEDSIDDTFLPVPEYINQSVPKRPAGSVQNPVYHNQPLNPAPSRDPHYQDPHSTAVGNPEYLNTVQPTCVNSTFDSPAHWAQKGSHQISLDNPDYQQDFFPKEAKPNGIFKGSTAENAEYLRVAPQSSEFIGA
Procedure, shortened: as §1

EGFR L858R/C797S = EGFR L858R/C797S (Homo sapiens, UniProt P00533, C797S/L858R); assay: Biochemical EGFR kinase inhibition assay (Lance Ultra TR-FRET), double mutant L858R/C797S
Procedure, shortened: as §1

EGFR wildtype (WT) = EGFR wildtype (WT) (Homo sapiens, UniProt P00533); assay: Biochemical EGFR kinase inhibition assay (Lance Ultra TR-FRET), wildtype
EGFR wildtype (WT), sequence (P00533 25-1210): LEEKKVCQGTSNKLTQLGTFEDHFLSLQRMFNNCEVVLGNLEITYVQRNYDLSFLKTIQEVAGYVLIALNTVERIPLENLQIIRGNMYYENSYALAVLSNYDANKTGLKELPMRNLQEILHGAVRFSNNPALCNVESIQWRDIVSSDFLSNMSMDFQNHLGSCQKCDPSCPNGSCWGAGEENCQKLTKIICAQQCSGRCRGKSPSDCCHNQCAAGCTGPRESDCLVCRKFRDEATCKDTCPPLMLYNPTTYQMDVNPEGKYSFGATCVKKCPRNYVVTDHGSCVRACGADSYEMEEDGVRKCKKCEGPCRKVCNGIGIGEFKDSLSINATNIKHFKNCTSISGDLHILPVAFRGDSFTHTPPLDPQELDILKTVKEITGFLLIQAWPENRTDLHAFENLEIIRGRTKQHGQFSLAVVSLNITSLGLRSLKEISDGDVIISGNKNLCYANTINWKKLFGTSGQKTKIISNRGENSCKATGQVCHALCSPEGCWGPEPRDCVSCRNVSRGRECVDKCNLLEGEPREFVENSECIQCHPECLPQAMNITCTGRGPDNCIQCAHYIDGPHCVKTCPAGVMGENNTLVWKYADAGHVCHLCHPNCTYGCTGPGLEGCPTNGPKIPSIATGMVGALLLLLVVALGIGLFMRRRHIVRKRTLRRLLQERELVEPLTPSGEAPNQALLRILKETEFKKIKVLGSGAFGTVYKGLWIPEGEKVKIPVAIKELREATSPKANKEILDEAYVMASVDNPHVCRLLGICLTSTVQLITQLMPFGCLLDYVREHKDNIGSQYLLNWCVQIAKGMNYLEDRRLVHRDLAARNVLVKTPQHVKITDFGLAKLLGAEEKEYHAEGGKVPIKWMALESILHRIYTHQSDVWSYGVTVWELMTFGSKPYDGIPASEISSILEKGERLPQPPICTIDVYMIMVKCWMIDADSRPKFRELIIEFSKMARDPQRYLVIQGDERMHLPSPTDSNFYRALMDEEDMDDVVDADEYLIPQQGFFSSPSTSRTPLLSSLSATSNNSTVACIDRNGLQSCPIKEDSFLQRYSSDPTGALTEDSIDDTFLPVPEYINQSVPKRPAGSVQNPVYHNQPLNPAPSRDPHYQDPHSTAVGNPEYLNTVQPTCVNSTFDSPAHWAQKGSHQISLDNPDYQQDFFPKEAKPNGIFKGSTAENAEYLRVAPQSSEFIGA
Procedure, shortened: as §1

[1] = IC50 Del19/T790M/C797S (nM), 100 μM ATP
[2] = Km ATP, read-out: IC50 Del19/T790M/C797S (nM), Km ATP
[3] = IC50 L858R/T790M/C797S (nM), 100 μM ATP
[4] = Km ATP, read-out: IC50 L858R/T790M/C797S (nM), Km ATP
[5] = IC50 Del19/C797S (nM), 100 μM ATP
[6] = Km ATP, read-out: IC50 Del19/C797S (nM), Km ATP
[7] = IC50 L858R/C797S (nM), 100 μM ATP
[8] = Km ATP, read-out: IC50 L858R/C797S (nM), Km ATP
[9] = Km ATP, read-out: IC50 WT (nM), Km ATP

EGFR Del19/T790M/C797S, sequence (P00533 with tags, fused parts or gaps DEL746-750/T790M/C797S): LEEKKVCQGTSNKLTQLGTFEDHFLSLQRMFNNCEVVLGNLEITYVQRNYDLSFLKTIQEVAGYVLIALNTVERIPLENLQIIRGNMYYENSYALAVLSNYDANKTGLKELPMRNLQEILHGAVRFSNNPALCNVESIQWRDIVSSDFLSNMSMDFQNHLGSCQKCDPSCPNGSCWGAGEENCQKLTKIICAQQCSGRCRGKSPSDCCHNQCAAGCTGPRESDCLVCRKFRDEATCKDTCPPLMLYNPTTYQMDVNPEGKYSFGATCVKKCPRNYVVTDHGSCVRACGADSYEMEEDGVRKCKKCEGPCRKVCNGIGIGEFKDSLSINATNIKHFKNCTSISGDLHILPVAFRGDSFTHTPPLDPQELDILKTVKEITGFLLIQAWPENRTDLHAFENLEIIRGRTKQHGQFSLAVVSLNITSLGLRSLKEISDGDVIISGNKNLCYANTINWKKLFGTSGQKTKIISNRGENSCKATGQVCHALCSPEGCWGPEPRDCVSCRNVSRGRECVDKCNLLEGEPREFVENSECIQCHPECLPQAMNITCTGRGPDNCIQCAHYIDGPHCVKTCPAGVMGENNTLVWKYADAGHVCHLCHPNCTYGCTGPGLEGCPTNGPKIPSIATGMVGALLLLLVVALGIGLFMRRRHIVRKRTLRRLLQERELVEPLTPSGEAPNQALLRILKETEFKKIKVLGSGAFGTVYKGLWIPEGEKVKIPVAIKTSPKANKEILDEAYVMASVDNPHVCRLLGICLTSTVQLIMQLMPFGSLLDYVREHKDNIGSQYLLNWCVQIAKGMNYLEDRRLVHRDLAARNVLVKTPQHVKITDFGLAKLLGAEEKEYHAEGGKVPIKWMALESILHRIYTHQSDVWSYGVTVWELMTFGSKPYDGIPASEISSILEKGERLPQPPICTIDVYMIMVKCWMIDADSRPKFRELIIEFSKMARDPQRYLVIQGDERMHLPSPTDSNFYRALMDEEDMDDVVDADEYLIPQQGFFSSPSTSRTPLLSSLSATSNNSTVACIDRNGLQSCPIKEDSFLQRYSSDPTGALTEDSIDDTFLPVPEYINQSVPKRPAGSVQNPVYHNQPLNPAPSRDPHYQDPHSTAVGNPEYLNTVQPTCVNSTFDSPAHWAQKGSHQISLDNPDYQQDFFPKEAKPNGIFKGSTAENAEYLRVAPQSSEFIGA

Row | Structure (SMILES) | IC50 (EGFR Del19/T790M/C797S; [1]) [nM] | IC50 (EGFR Del19/T790M/C797S; [2]) [nM] | IC50 (EGFR L858R/T790M/C797S; [3]) [nM] | IC50 (EGFR L858R/T790M/C797S; [4]) [nM] | IC50 (EGFR Del19/C797S; [5]) [nM] | IC50 (EGFR Del19/C797S; [6]) [nM] | IC50 (EGFR L858R/C797S; [7]) [nM] | IC50 (EGFR L858R/C797S; [8]) [nM] | IC50 (EGFR wildtype (WT); IC50 WT (nM), 100 μM ATP) [nM] | IC50 (EGFR wildtype (WT); [9]) [nM]
1 | O=S(=O)(C1CC1)n1cc(-c2nccc(Nc3cc(N[C@H]4CC[C@@H](CO)CC4)c(C#Cc4cnn(C(F)(F)F)c4)cn3)n2)cn1 [Example 336, ((1s,4s)-4-((2-((2-(1-(Cyclopropylsulfonyl)-1H-pyrazol-4-yl)pyrimidin-4-yl)amino)-5-((1-(trifluoromethyl)-1H-pyrazol-4-yl)ethynyl)pyridin-4-yl)amino)cyclohexyl)methanol] | 3.9 | 2 | 2.4 | 1.3 | 38.2 | 26.1 | 1750 | 50.1 | > 10000 | 295
2 | CC(C)(O)[C@H]1CC[C@@H](Nc2cc(Nc3ccnc(-c4cnn(S(=O)(=O)C5CC5)c4)n3)ncc2C#Cc2cnn(C(F)(F)F)c2)CC1 [Example 337, 2-((1s,4s)-4-((2-((2-(1-(Cyclopropylsulfonyl)-1H-pyrazol-4-yl)pyrimidin-4-yl)amino)-5-((1-(trifluoromethyl)-1H-pyrazol-4-yl)ethynyl)pyridin-4-yl)amino)cyclohexyl)propan-2-ol] | 8 | 6 | 10.9 | 3.3 | 325 | 197 | > 10000 |  | > 10000 | 
3 | O=S(=O)(C1CC1)n1cc(-c2nccc(Nc3cc(N4CCC(F)(CO)CC4)c(C#Cc4cnn(C(F)(F)F)c4)cn3)n2)cn1 [Example 338, (1-(2-((2-(1-(Cyclopropylsulfonyl)-1H-pyrazol-4-yl)pyrimidin-4-yl)amino)-5-((1-(trifluoromethyl)-1H-pyrazol-4-yl)ethynyl)pyridin-4-yl)-4-fluoropiperidin-4-yl)methanol] | 0.4 | 0.3 | 0.5 | 0.2 | 17.1 | 10.8 | 9580 | 42.8 | > 10000 | 149
4 | O=S(=O)(C1CC1)n1cc(-c2nccc(Nc3cc(N[C@H]4CC[C@@H](O)CC4)c(C#Cc4cnn(CC(F)(F)F)c4)cn3)n2)cn1 [Example 339, (1s,4s)-4-((2-((2-(1-(Cyclopropylsulfonyl)-1H-pyrazol-4-yl)pyrimidin-4-yl)amino)-5-((1-(2,2,2-trifluoroethyl)-1H-pyrazol-4-yl)ethynyl)pyridin-4-yl)amino)cyclohexan-1-ol] | 0.9 | 1 | 1 | 0.5 | 7.5 | 3.8 | 29.7 | 4.9 | > 10000 | 18.2
5 | O=S(=O)(C1CC1)n1cc(-c2nccc(Nc3cc(N[C@H]4CC[C@@H](CO)CC4)c(C#Cc4cnn(CC(F)(F)F)c4)cn3)n2)cn1 [Example 340, ((1s,4s)-4-((2-((2-(1-(Cyclopropylsulfonyl)-1H-pyrazol-4-yl)pyrimidin-4-yl)amino)-5-((1-(2,2,2-trifluoroethyl)-1H-pyrazol-4-yl)ethynyl)pyridin-4-yl)amino)cyclohexyl)methanol] | 2 | 1.6 | 1.6 | 0.7 | 7.3 | 5 | 40.8 | 10.5 | > 10000 | 26
6 | O=S(=O)(C1CC1)n1cc(-c2nccc(Nc3cc(N[C@H]4CCC[C@H](O)C4)c(C#Cc4cnn(CC(F)(F)F)c4)cn3)n2)cn1 [Example 341, (1S,3S)-3-((2-((2-(1-(Cyclopropylsulfonyl)-1H-pyrazol-4-yl)pyrimidin-4-yl)amino)-5-((1-(2,2,2-trifluoroethyl)-1H-pyrazol-4-yl)ethynyl)pyridin-4-yl)amino)cyclohexan-1-ol] | 3.1 | 2.5 | 4 | 0.9 | 34.2 | 21.4 | 128 | 42.4 | > 10000 | 163
7 | O=S(=O)(C1CC1)n1cc(-c2nccc(Nc3cc(N4CCC(F)(CO)CC4)c(C#Cc4cnn(CC(F)(F)F)c4)cn3)n2)cn1 [Example 342, (1-(2-((2-(1-(Cyclopropylsulfonyl)-1H-pyrazol-4-yl)pyrimidin-4-yl)amino)-5-((1-(2,2,2-trifluoroethyl)-1H-pyrazol-4-yl)ethynyl)pyridin-4-yl)-4-fluoropiperidin-4-yl)methanol] | 0.9 | 0.8 | 0.8 | 0.2 | 3.6 | 2.3 | 11.8 | 4.5 | > 10000 | 11
8 | O=S(=O)(C1CC1)n1cc(-c2nccc(Nc3cc(N4CCCC(O)C4)c(C#Cc4cnn(CC(F)(F)F)c4)cn3)n2)cn1 (stereo not shown) [Example 343, 1-(2-((2-(1-(Cyclopropylsulfonyl)-1H-pyrazol-4-yl)pyrimidin-4-yl)amino)-5-((1-(2,2,2-trifluoroethyl)-1H-pyrazol-4-yl)ethynyl)pyridin-4-yl)piperidin-3-ol] | 1.9 | 2.6 | 3.1 | 0.7 | 19.2 | 11.9 | 68.1 | 19.8 | > 10000 | 55.5
9 | C[C@]1(O)CC[C@@H](Nc2cc(Nc3ccnc(-c4cnn(S(=O)(=O)C5CC5)c4)n3)ncc2C#Cc2cnn(CC(F)(F)F)c2)CC1 [Example 344, (1s, 4s)-4-((2-((2-(1-(Cyclopropylsulfonyl)-1H-pyrazol-4-yl)pyrimidin-4-yl)amino)-5-((1-(2,2,2-trifluoroethyl)-1H-pyrazol-4-yl)ethynyl)pyridin-4-yl)amino)-1-methylcyclohexan-1-ol] | 11.5 | 7.9 | 5 | 3.1 | 50.6 | 31.3 | 112 | 24.1 | > 10000 | 200
10 | O=S(=O)(C1CC1)n1cc(-c2nccc(Nc3cc(N[C@H]4CC[C@@H](NCCF)CC4)c(C#Cc4cnn(CC(F)(F)F)c4)cn3)n2)cn1 [Example 345, N^2-(2-(1-(Cyclopropylsulfonyl)-1H-pyrazol-4-yl)pyrimidin-4-yl)-N^4-((1s,4s)-4-((2-fluoroethyl)amino)cyclohexyl)-5-((1-(2,2,2-trifluoroethyl)-1H-pyrazol-4-yl)ethynyl)pyridine-2,4-diamine] | 2.7 | 1.5 | 2.2 | 1.3 | 27.6 | 11 | 45.3 | 9.3 | 7830 | 138
11 | CC(C)(O)[C@H]1CC[C@@H](Nc2cc(Nc3ccnc(-c4cnn(S(=O)(=O)C5CC5)c4)n3)ncc2C#Cc2cnn(CC(F)(F)F)c2)CC1 [Example 346, 2-((1s,4s)-4-((2-((2-(1-(Cyclopropylsulfonyl)-1H-pyrazol-4-yl)pyrimidin-4-yl)amino)-5-((1-(2,2,2-trifluoroethyl)-1H-pyrazol-4-yl)ethynyl)pyridin-4-yl)amino)cyclohexyl)propan-2-ol] | 17.4 |  | 5.8 |  | 45.3 |  | 249 |  | > 10000 | 
